Results taken from patent US20020160983A1, “Substituted benzopyranones as telomerase inhibitors” (priority 2001, published 2002).

Each molecule was assayed against telomerase enzyme (Homo sapiens, UniProt O14746) (assay: Flash Plate-based telomerase activity assay). Details: two hours of incubation at 37°, biotinylated oligo primer, radioactive labeled probe.
Format: biochemical
Method: The telomerase activity of the compounds has been evaluated using a Flash Plate-based assay.
Briefly the assay mixture is constituted of:
telomerase enzyme diluted in a buffer, the composition of which has been selected to maintain the enzyme activity stable along the duration of the assay.
dNTPs, deoxynucleotides 5′-triphosphate.
biotinylated oligo as primer.
increasing concentrations of test compounds/positive control.
After two hours of incubation at 37° degrees the telomeric repeats added by telomerase are evaluated by hybridization in solution with a 3′-radioactive labeled short oligonucleotide probe.
The extent of hybridization is then quantitated by transferring the reaction mixture in a streptavidin-coated flash plate, where the binding between biotin and streptavidin occurs.
The telomerase activity is proportional to the radioactivity measured and the inhibitory activity of the compounds is evaluated as IC50 using the Sigma Plot fit program.
With the above-described method IC50 values of the compounds of the present invention were determined.

Chain of telomerase enzyme (O14746 whole entry): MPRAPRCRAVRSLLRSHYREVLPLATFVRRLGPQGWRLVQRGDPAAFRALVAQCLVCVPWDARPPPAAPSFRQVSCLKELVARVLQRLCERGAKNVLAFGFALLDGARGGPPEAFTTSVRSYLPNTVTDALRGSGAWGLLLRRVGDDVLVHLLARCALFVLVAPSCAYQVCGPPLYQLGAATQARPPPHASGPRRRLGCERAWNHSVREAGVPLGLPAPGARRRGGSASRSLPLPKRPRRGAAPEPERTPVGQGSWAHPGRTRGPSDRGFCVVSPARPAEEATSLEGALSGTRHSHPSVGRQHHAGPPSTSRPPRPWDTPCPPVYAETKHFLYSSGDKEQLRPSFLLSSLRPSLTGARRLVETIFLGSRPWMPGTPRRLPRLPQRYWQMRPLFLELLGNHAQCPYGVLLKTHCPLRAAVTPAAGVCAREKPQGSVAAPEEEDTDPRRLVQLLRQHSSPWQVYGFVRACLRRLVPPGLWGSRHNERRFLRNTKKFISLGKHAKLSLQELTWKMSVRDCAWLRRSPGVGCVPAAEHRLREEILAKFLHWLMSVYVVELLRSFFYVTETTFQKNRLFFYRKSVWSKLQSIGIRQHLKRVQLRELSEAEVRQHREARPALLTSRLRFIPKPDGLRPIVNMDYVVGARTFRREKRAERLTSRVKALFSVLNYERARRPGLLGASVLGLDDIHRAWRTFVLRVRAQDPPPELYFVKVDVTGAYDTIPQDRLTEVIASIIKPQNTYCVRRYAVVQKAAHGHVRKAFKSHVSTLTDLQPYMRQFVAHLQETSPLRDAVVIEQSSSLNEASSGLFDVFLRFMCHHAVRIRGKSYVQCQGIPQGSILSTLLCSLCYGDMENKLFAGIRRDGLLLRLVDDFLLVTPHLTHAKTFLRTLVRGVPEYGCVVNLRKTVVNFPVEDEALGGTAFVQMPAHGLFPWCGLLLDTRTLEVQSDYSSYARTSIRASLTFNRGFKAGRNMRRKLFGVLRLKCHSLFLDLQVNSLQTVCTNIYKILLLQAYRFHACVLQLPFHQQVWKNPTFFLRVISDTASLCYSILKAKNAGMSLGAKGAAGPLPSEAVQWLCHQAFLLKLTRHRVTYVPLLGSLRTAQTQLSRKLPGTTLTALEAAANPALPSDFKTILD

Row | Compound | IC50
1 | O=c1c(Cl)c(-c2ccc(O)c(O)c2)oc2c(O)c(O)ccc12 [Compound 37, 3-chloro-2-(3,4-dihydroxyphenyl)-7,8-dihydroxy-4H-chromen-4-one] | 0.8 µM
2 | O=c1cc(-c2ccc(O)cc2)oc2c(O)c(O)ccc12 [Compound 2, 7,8-dihydroxy-2-(4-hydroxyphenyl)-4H-chromen-4-one] | 3 µM
3 | Nc1ccc(-c2cc(=O)c3ccc(O)c(O)c3o2)cc1N [Compound 52, 2-(3,4-diaminophenyl)-7,8-dihydroxy-4H-chromen-4-one] | 3.6 µM
4 | COc1ccc(-c2oc3c(OC)c(OC)ccc3c(=O)c2Cl)cc1OC [Compound 38, 3-chloro-2-(3,4-dimethoxyphenyl)-7,8-dimethoxy-4H-chromen-4-one] | > 40 µM
5 | COc1ccc2c(=O)cc(-c3ccc4[nH]cnc4c3)oc2c1OC [Compound 61, 2-(1H-benzimidazol-5-yl)-7,8-dimethoxy-4H-chromen-4-one] | 2.2 µM
6 | COc1ccc(-c2cc(=O)c3ccc(O)c(O)c3o2)cc1OC [Compound 7, 7,8-dihydroxy-2-(3,4-dimethoxyphenyl)-4H-chromen-4-one] | 12 µM
7 | O=c1cc(-c2ccc(O)c(O)c2)oc2c(O)c(O)c(Cl)cc12 [Compound 49, 6-chloro-2-(3,4-dihydroxyphenyl)-7,8-dihydroxy-4H-chromen-4-one] | 0.34 µM
8 | N#Cc1c(-c2ccc(O)c(O)c2)oc2c(O)c(O)ccc2c1=O [Compound 39, 3-cyano-2-(3,4-dihydroxyphenyl)-7,8-dihydroxy-4H-chromen-4-one] | 0.13 µM
9 | CC(=O)Oc1ccc(-c2cc(=O)c3ccc(OC(C)=O)c(OC(C)=O)c3o2)cc1OC(C)=O [Compound 14, 2-(3,4-diacetoxyphenyl)-7,8-diacetoxy—4H-chromen-4-one] | 15 µM
10 | COc1ccc2c(=O)cc(-c3ccc4[nH]nnc4c3)oc2c1OC [Compound 65, 2-(1H-1,2,3-benzotriazol-5-yl)-7,8-dimethoxy-4H-chromen-4-one] | > 40 µM
11 | COc1ccc(-c2cc(=O)c3ccc(OC)c(OC)c3o2)cc1O [Compound 87, 7,8-dimethoxy-2-(3-hydroxy-4-methoxyphenyl)-4H-chromen-4-one] | 8.7 µM
12 | COc1ccc2c(=O)cc(-c3ccc4[nH]c(=O)[nH]c4c3)oc2c1OC [Compound 67, 5-(7,8-dimethoxy-4-oxo-4H-chromen-2-yl)-1,3-dihydro-2H-benzimidazol-2-one] | 19 µM
13 | O=c1cc(-c2cccc(O)c2)oc2c(O)c(O)ccc12 [Compound 5, 7,8-dihydroxy-2-(3-hydroxyphenyl)-4H-chromen-4-one] | 34 µM
14 | COc1ccc(-c2cc(=O)c3ccc(OC)c(OC)c3o2)cc1OC [Compound 24, 7,8-dimethoxy-2-(3,4-dimethoxyphenyl)-4H-chromen-4-one] | > 40 µM
15 | O=c1cc(-c2cccc(Cl)c2)oc2c(O)c(O)ccc12 [Compound 45, 2-(3-chlorophenyl)-7,8-dihydroxy-4H-chromen-4-one] | 30 µM
16 | O=c1cc(-c2ccc(Cl)c(Cl)c2)oc2c(O)c(O)ccc12 [Compound 46, 2-(3,4-dichlorophenyl) -7,8-dihydroxy-4H-chromen-4-one] | 14.3 µM
17 | CC(=O)Oc1ccc(-c2cc(=O)c3ccc(O)c(O)c3o2)cc1OC(C)=O [Compound 90, 2-(3,4-diacetoxyphenyl)-7,8-dihydroxy-4H-chromen-4-one] | 0.64 µM
18 | COc1ccc(-c2cc(=O)c3cc(Cl)c(OC)c(OC)c3o2)cc1OC [Compound 50, 6-chloro-2-(3,4-dimethoxyphenyl)-7,8-dimethoxy-4H-chromen-4-one] | 5.4 µM
19 | COc1ccc2c(=O)cc(-c3ccc(NC(C)=O)c(NC(C)=O)c3)oc2c1OC [Compound 58, N-[2-(acetylamino)-4-(7,8-dimethoxy-4-oxo-4H-chromen-2-yl)phenyl]acetamide] | > 40 µM
20 | O=c1cc(-c2ccccc2)oc2c(O)c(O)ccc12 [Compound 1, 7,8-dihydroxy-2-phenyl-4H-chromen-4-one] | 33 µM
21 | COc1ccc2c(=O)cc(-c3ccc(O)c(O)c3)oc2c1O [Compound 78, 8-hydroxy-7-methoxy-2-(3,4-dihydroxyphenyl)-4H-chromen-4-one] | 7.8 µM
22 | O=c1cc(-c2ccccc2O)oc2c(O)c(O)ccc12 [Compound 4, 7,8-dihydroxy-2-(2-hydroxyphenyl)-4H-chromen-4-one] | 25.3 µM
23 | O=c1c(F)c(-c2ccc(O)c(O)c2)oc2c(O)c(O)ccc12 [Compound 41, 3-fluoro-2-(3,4-dihydroxyphenyl)-7,8-dihydroxy-4H-chromen-4-one] | 0.6 µM
24 | COc1ccc(-c2cc(=O)c3ccc(O)c(O)c3o2)cc1O [Compound 79, 7,8-dihydroxy-2-(3-hydroxy-4-methoxyphenyl)-4H-chromen-4-one] | 11.7 µM
25 | COc1ccc2c(=O)cc(-c3ccc(N)c(N)c3)oc2c1OC [Compound 51, 2-(3,4-diaminophenyl)-7,8-dimethoxy-4H-chromen-4-one] | 7.4 µM
26 | O=c1cc(-c2ccc(O)c(O)c2)oc2c(O)c(O)ccc12 [Compound 3, 2-(3,4-dihydroxyphenyl)-7,8-dihydroxy-4H-chromen-4-one] | 0.3 µM
